Experiments:
Experiment in all cases: KiNativ profiling in human PBMCs
Format in all cases: binding
[1] = tested on: T1, CaMK1a
T1 construct: purchased ActivX Technologies (KiNativ)
Experimental: (§1) Compounds were shipped to ActivX Technologies (San Diego, US) where LRRK2 target engagement and broad kinase profiling was performed using KiNativ™ procedures. Live cell treatment of human peripheral blood mononuclear cells (PBMCs) at two compound concentrations (1 µM and 0.1 µM) were used to evaluate and compare in vitro target engagement and kinase selectivity, respectively (see Supplementary File 1).

[2] = tested on: T2, RSK1 domain1
T2 construct: RSK1 domain1; purchased ActivX Technologies (KiNativ)
Experimental: as §1

[3] = tested on: T3, QSK; details: Lys1
T3 construct: purchased ActivX Technologies (KiNativ)
Experimental: as §1

[4] = tested on: T4, LRRK2
T4 construct: purchased ActivX Technologies (KiNativ)
Experimental: as §1

[5] = tested on: T5, TAO2; details: Lys2
T5 construct: purchased ActivX Technologies (KiNativ)
Experimental: as §1

[6] = tested on: T6, NuaK2; details: Lys1
T6 construct: purchased ActivX Technologies (KiNativ)
Experimental: as §1

[7] = tested on: T7, KSR1; details: Activation Loop
T7 construct: purchased ActivX Technologies (KiNativ)
Experimental: as §1

[8] = tested on: T8, NEK7; details: Lys1
T8 construct: purchased ActivX Technologies (KiNativ)
Experimental: as §1

[9] = tested on: T9, BARK1; details: Lys2
T9 construct: purchased ActivX Technologies (KiNativ)
Experimental: as §1

[10] = tested on: T10, MST2; details: Lys1
T10 construct: purchased ActivX Technologies (KiNativ)
Experimental: as §1

[11] = tested on: ZC1/HGK,ZC2/TNIK,ZC3/MINK; details: Lys2
Experimental: as §1

[12] = tested on: T11, STLK5
T11 construct: purchased ActivX Technologies (KiNativ)
Experimental: as §1

[13] = tested on: MST4,YSK1; details: Lys2
Experimental: as §1

[14] = tested on: T12, IRE1; details: Lys2
T12 construct: purchased ActivX Technologies (KiNativ)
Experimental: as §1

[15] = tested on: T13, LKB1; details: Lys2
T13 construct: purchased ActivX Technologies (KiNativ)
Experimental: as §1

[16] = tested on: T14, ACK; details: Lys1
T14 construct: purchased ActivX Technologies (KiNativ)
Experimental: as §1

[17] = tested on: T15, MAP2K6
T15 construct: purchased ActivX Technologies (KiNativ)
Experimental: as §1

[18] = tested on: T16, MST3
T16 construct: purchased ActivX Technologies (KiNativ)
Experimental: as §1

Cn1cc(-c2c[nH]c3ncnc(N4CCOCC4)c23)cc1C#N [PFE-360]
% Inhibition ([1]; 0.1µM, Lys1): -2.5%
% Inhibition ([1]; 0.1µM, Lys2): -12.3%
% Inhibition ([1]; 1µM, Lys1): 3.5%
% Inhibition ([1]; 1µM, Lys2): -25%
% Inhibition ([2]; 0.1µM, Activation Loop): 4.6%
% Inhibition ([2]; 0.1µM, Lys1): -11.3%
% Inhibition ([2]; 0.1µM, Lys2): -4.4%
% Inhibition ([2]; 1µM, Activation Loop): 1.1%
% Inhibition ([2]; 1µM, Lys1): 3.4%
% Inhibition ([2]; 1µM, Lys2): 10.9%
% Inhibition ([3]; 0.1µM): -13%
% Inhibition ([3]; 1µM): -12.1%
% Inhibition ([4]; 0.1µM, Lys1): >90%
% Inhibition ([4]; 0.1µM, Lys2): 93.8%
Inhibition ([4]; 0.1µM, Lys2): full inhibition
% Inhibition ([4]; 1µM, Lys1): >90%
% Inhibition ([4]; 1µM, Lys2): 96.7%
% Inhibition ([5]; 0.1µM): 1.1%
% Inhibition ([5]; 1µM): -26.1%
% Inhibition ([6]; 0.1µM): 14.4%
% Inhibition ([6]; 1µM): 4.6%
% Inhibition ([7]; 0.1µM): 6.8%
% Inhibition ([7]; 1µM): 8.2%
% Inhibition ([8]; 0.1µM): 2.8%
% Inhibition ([8]; 1µM): 11.7%
% Inhibition ([9]; 0.1µM): -4.8%
% Inhibition ([9]; 1µM): -29.7%
% Inhibition ([10]; 0.1µM): 15.1%
% Inhibition ([10]; 1µM): 48%
% Inhibition ([11]; 0.1µM): 10.3%
% Inhibition ([11]; 1µM): -7.3%
% Inhibition ([12]; 0.1µM, Activation Loop): -11%
% Inhibition ([12]; 0.1µM, Lys2): 10.9%
% Inhibition ([12]; 1µM, Activation Loop): -2.2%
% Inhibition ([12]; 1µM, Lys2): -15.8%
% Inhibition ([13]; 0.1µM): -0.2%
% Inhibition ([13]; 1µM): -16.6%
% Inhibition ([14]; 0.1µM): -14.5%
% Inhibition ([14]; 1µM): 10.8%
% Inhibition ([15]; 0.1µM): 6.5%
% Inhibition ([15]; 1µM): 0.4%
% Inhibition ([16]; 0.1µM): -5.6%
% Inhibition ([16]; 1µM): -0.5%
% Inhibition ([17]; 0.1µM, Lys1): -18%
% Inhibition ([17]; 0.1µM, Lys2): 14.6%
% Inhibition ([17]; 1µM, Lys1): 1.8%
% Inhibition ([17]; 1µM, Lys2): 6.2%
% Inhibition ([18]; 0.1µM, Lys1): -15.8%
% Inhibition ([18]; 0.1µM, Lys2): -6.1%
% Inhibition ([18]; 1µM, Lys1): -21.2%
% Inhibition ([18]; 1µM, Lys2): -16.2%
